Entries after “also recorded” stand apart in the source; their conditions may differ. Read-outs that look alike come from different tables or passages of the source.
Columns and labels:
E. coli PanK (CoAA) [1] = biological target: T1, E. coli PanK (CoAA) (Escherichia coli, UniProt P0A6I3); experiment: Kinetic assay of pantetheine analogs as substrates of PanK; format: biochemical; conditions: for Km / kcat: compound as substrate of E. coli PanK; for Km, fold lower: compared with pantothenate
T1 sequence (P0A6I3 1-316): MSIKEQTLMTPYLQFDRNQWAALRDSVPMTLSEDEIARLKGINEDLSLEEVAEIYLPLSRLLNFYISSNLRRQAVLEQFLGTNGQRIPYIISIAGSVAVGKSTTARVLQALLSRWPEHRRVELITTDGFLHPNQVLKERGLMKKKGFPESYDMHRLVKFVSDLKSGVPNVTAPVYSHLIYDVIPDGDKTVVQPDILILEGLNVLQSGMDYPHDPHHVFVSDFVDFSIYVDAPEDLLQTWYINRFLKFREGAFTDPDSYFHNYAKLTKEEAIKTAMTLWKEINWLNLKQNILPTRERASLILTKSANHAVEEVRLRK
Description: As mentioned earlier, phosphorylation of the primary hydroxyl group of pantothenate by the first protein in the CoA biosynthesis pathway, PanK, is believed to be the rate limiting step in vivo. Jackowski and Rock, J. Bacteria 148:926, 1981. Due to its role as the gatekeeper of CoA biosynthesis, each of the new analogs was assayed for kinetic activity with PanK (Table 2).
The assay was performed as previously described using the prototypical bacterial PanK, CoAA from E. coli. Kumar and Aldrich, Org. Lett. 5:613, 2003. The reaction of CoAA with the natural substrate pantothenate gave values that conformed to those previously reported in the literature. Worthington and Burkart, Org. Biomol. Chem. 4:44, 2005; Strauss and Begley, J. Biol. Chem. 277:48205, 2002. […] Conversely, compounds with PEG linkers between the pantoic acid moiety and the bioorthogonal terminus were poor substrates for CoAA.

[2] = tested on: E. coli overexpressing the carrier protein VibB and the PPTase Sfp; experiment: In vivo uptake: carrier protein labeling in E. coli; format: cell-based; conditions: 1 mM compound, 4 hours of growth, SDS-PAGE fluorescence or western blot
Description: (§1) (a) Analogs were assayed for gel shift after reaction with CoA biosynthesis enzymes (CoAA/D/E), PPTase (Sfp) and carrier protein (E. coli ACP). Conversion of apo-ACP to reporter modified crypto-ACP causes a change in the mobility of the protein on native PAGE. (b) In vitro modification of the carrier protein VibB by reaction with fluorescent pantetheine analogs, CoA biosynthesis enzymes (CoAA/D/E) and Sfp. (c) In vivo modification of carrier protein by incubation of fluorescent pantetheine analogs with E. coli overexpressing VibB and the PPTase Sfp. (d) In vitro modification of VibB by reaction with bioorthogonal pantetheine analogs, CoA biosynthesis enzymes (CoAA/D/E) and Sfp. Labeled carrier protein is visualized by chemoselective ligation to the appropriate biotin reporter (9-11) followed by SDS-PAGE, blotting onto nitrocellulose, and incubation with streptavidin-linked alkaline phosphatase. (e) In vivo modification of carrier protein by incubation of bioorthogonal pantetheine analogs with E. coli overexpressing VibB and the PPTase Sfp. Visualization as in (d).
(§2) The library of pantetheine analogs was tested for integration into the E. coli CoA pathway using an in vivo assay. Clarke et al., J. Am. Chem. Soc. 127:11234, 2005. E. coli overexpressing the carrier protein VibB and the PPTase Sfp were incubated with 1 mM of each compound in 1 ml of culture. After 4 hours of growth cells were pelleted, washed, and lysed. Lysate from these cultures was run on SDS-PAGE gels and detection carried out as described for the in vitro studies. […] To verify the results of the gels and blots, samples of crude lysate were assayed by MALDI-MS (FIG. 11). For MALDI-MS analysis doubly transformed E. coli containing plasmids for the carrier protein Fren and the PPTase Sfp were used.

[3] = tested on: CoA biosynthesis enzymes (CoAA/D/E), PPTase (Sfp) and carrier protein (E. coli ACP); conditions: native PAGE
Description: Virga et al., Bioorg. Med. Chem. 14:1007, 2006. […] Clarke et al., J. Am. Chem. Soc. 127:11234, 2005.
as §1

[4] = tested on: CoA biosynthetic enzymes (CoAA/D/E), PPTase Sfp and apo-ACP; conditions: MALDI-MS, in vitro
Description: To confirm the results from this assay, the reaction mixtures were subjected to matrix-assisted laser desorption/ionization mass spectrometry (MALDI-MS). […] Compound 13 was reacted with the CoAA biosynthesis enzymes, ACP, and Sfp as described above and the reaction mix analyzed by MALDI without further purification.
Apo-ACP (a) is reacted with pantetheine analogs, CoA biosynthetic enzymes (CoAA/D/E) and the PPTase Sfp.

[5] = tested on: E. coli containing plasmids for the carrier protein Fren and the PPTase Sfp; experiment: MALDI-MS of crude lysate after in vivo labeling; format: cell-based
Description: as §2

CoAA = CoAA (Escherichia coli, UniProt P0A6I3); conditions: pantothenate as substrate
Description: To isolate and investigate the effect of H-bond accepting heteroatoms in the linker region, pantetheine analogs 15 and 16 were synthesized. […] Virga et al., Bioorg. Med. Chem. 14:1007, 2006. […] To test if these compounds were acting as inhibitors of CoAA, a competitive kinetic assay was set up using pantotenate as the substrate. […] Ivey et al., J. Biol. Chem. 279:35622, 2004. Investigation of these compounds as potential inhibitor scaffolds is ongoing.

E. coli PanK (CoAA) [6] = biological target: T1, E. coli PanK (CoAA); conditions: natural pantetheine, from reference 14, cited from earlier work
[7] = compound 3 (β-Ala linkage) versus compound 1

| Compound | Km compared with natural substrate pantothenate (fold higher) (E. coli PanK (CoAA) [1]) | turnover compared with the natural substrate (in words) (E. coli PanK (CoAA) [1]) | Km (E. coli PanK (CoAA) [1]) | kcat (E. coli PanK (CoAA) [1]) | substrate suitability for CoAA/PanK (in words) (E. coli PanK (CoAA) [1]) | modification of VibB in vivo (detectability) [2] | other results |
| --- | --- | --- | --- | --- | --- | --- | --- |
| CC(C)(CO)[C@@H](O)C(=O)NCCN=[N+]=[N-] [Compound 1] | 20 fold | turnover within the range of the natural substrate | 692 ± 89.1 µM | 0.3722 ± 0.0257 s⁻¹ |  |  |  |
| C#CCNC(=O)CCNC(=O)[C@H](O)C(C)(C)CO [Compound 2] |  |  | 32.9 ± 2.54 µM | 0.5242 ± 0.0125 s⁻¹ | kcat and Km values closely approaching those of the natural substrate | detectable modification of VibB in vivo; also recorded: biodetectible in E. coli |  |
| CC(C)(CO)[C@@H](O)C(=O)NCCC(=O)NCCN=[N+]=[N-] [Compound 3] |  |  | 43.5 ± 1.99 µM | 0.46695 ± 0.007 s⁻¹ | kcat and Km values closely approaching those of the natural substrate | detectable modification of VibB in vivo; also recorded: biodetectible in E. coli | increase in Km (E. coli PanK (CoAA) [1]; [7]): 10 fold; increase in catalytic efficiency (E. coli PanK (CoAA) [1]; [7]): ~20 fold |
| CC(=O)CCC(=O)NCCNC(=O)CCNC(=O)[C@H](O)C(C)(C)CO [Compound 4] | two fold higher | near equal | 62.6 ± 3.89 µM | 0.344 ± 0.0075 s⁻¹ |  | detectable, but showed much weaker labeling; also recorded: biodetectible in E. coli |  |
| CC(C)(CO)[C@@H](O)C(=O)NCCC(=O)NCCNC(=O)CCN=[N+]=[N-] [Compound 5] | two fold higher | exceeding | 71.9 ± 6.98 µM | 0.6818 ± 0.0187 s⁻¹ | processed particularly efficiently by PanK | detectable modification of VibB in vivo; also recorded: biodetectible in E. coli |  |
| CC(=O)CCC(=O)NCCOCCOCCNC(=O)[C@H](O)C(C)(C)CO [Compound 6] |  |  | 0.196 ± 0.09 µM | 0.0267 ± 0.001 s⁻¹ | markedly decreased kinetic activity |  |  |
| CC(C)(CO)[C@@H](O)C(=O)NCCOCCOCCNC(=O)CCN=[N+]=[N-] [Compound 7] | two-fold higher |  | 53.8 ± 11.2 µM | 0.103 ± 0.00733 s⁻¹ | viable substrates |  |  |
| CC(C)(CO)[C@@H](O)C(=O)NCCOCCOCCOCCOCCOCCOCCOCCOCCOCCOCCN=[N+]=[N-] [Compound 8] |  |  |  |  | such poor substrates that kinetic data could not be generated |  | change in mobility / conversion of apo-ACP to crypto-ACP [3]: multiple bands on the gel that suggest apo-protein remains; conversion to CoA analog and transfer onto carrier protein ACP [4]: significantly incomplete |
| CN(C)c1ccc2c(CC(=O)NCCNC(=O)[C@H](O)C(C)(C)CO)cc(=O)oc2c1 [Compound 12] |  |  | 37.2 ± 5.82 µM | 0.1927 ± 0.0095 s⁻¹ | lower turnover and catalytic efficiency than analogs containing the natural β-Ala/pantoic acid linkage; also recorded: good binding but slow turnover | detectable modification of VibB in vivo; also recorded: biodetectible in E. coli |  |
| CN(C)c1ccc2c(CC(=O)NCCCCCCNC(=O)CCNC(=O)[C@H](O)C(C)(C)CO)cc(=O)oc2c1 [Compound 13] | the same as | near equal | 28.4 ± 6.92 µM | 0.3193 ± 0.0235 s⁻¹ | processed particularly efficiently by PanK | detectable modification of VibB in vivo; also recorded: biodetectible in E. coli | in vivo uptake and attachment onto Fren [5]: taken up by the cell, processed into a CoA analog and attached onto Fren; conversion to CoA analog and transfer onto carrier protein ACP [4]: converted to CoA analogs and modify ACP |
| CN(C)c1cccc2c(S(=O)(=O)NCCNC(=O)CCNC(=O)[C@H](O)C(C)(C)CO)cccc12 [Compound 14] | the same as | near equal | 27.3 ± 3.28 µM | 0.2877 ± 0.0103 s⁻¹ | processed particularly efficiently by PanK |  |  |
| CN(C)c1ccc2c(CC(=O)NCCCOCCNC(=O)[C@H](O)C(C)(C)CO)cc(=O)oc2c1 [Compound 15] |  |  | 0.76 ± 0.32 µM | 0.0227 ± 0.00083 s⁻¹ | extremely poor substrates; also recorded: losing almost all substrate activity |  | Km, fold lower (E. coli PanK (CoAA) [1]): 100 fold; mode of inhibition of CoAA (CoAA): non-competitive inhibitor |
| CN(C)c1ccc2c(CC(=O)NCCOCCCNC(=O)[C@H](O)C(C)(C)CO)cc(=O)oc2c1 [Compound 16] |  |  | 0.14 ± 0.18 µM | 0.0167 ± 0.0005 s⁻¹ | extremely poor substrates; also recorded: losing almost all substrate activity |  | Km, fold lower (E. coli PanK (CoAA) [1]): 100 fold |
| CN(C)c1ccc2c(CC(=O)NCCOCCOCCNC(=O)[C@H](O)C(C)(C)CO)cc(=O)oc2c1 [Compound 17] | two-fold higher |  | 51.2 ± 6.42 µM | 0.1677 ± 0.00717 s⁻¹ | viable substrates |  | conversion to CoA analog and transfer onto carrier protein ACP [4]: converted to CoA analogs and modify ACP |
| CN(C)c1ccc2c(CC(=O)NCCOCCOCCOCCOCCOCCOCCOCCOCCOCCOCCNC(=O)[C@H](O)C(C)(C)CO)cc(=O)oc2c1 [Compound 18] |  |  |  |  | such poor substrates that kinetic data could not be generated |  | change in mobility / conversion of apo-ACP to crypto-ACP [3]: multiple bands on the gel that suggest apo-protein remains |
| CC(C)(CO)[C@@H](O)C(=O)NCCC(=O)NCCS [Pantetheine] |  |  |  |  |  |  | Km (E. coli PanK (CoAA) [6]): 91 ± 10 µM; kcat (E. coli PanK (CoAA) [6]): 0.32 ± 0.0017 s⁻¹; kcat (E. coli PanK (CoAA) [6]; listed as pantetheine): 0.525 s⁻¹ |
